In patent US20140349852A1, “METABOLIC CONTROL OF SEED GERMINATION” (Oregon State University, priority 2010, published 2014):

Assays:
[1] = tested on: AGE:NCED6 transgenic Camelina seeds; assay: Germination test of Camelina AGE:NCED6 seeds; type: in vivo, Camelina sativa; set-up: recovery of germination of MOF-induced AGE:NCED6 Camelina seeds: dose or concentration left out as unconfirmed
Method: (§1) For the induction experiment in imbibed seeds, seeds were placed in 9 cm plastic petri dishes on two layers of filter paper (No. 2, Whatman Inc.) moistened with 4 mL water or (122.6 μM or 2×10,000) MOF or 1 mM ABA and incubated at 4° C. for overnight and at 22° C. for 72 h (germination tests and gene expression analysis).
To determine whether there was an effect of the AGE: NCED6 expression vector on the ability of transgenic seeds to undergo germination, wild-type and homozygous seeds from transgenic plant lines, 16-12, 17-17, and 13-12, were imbibed for three days in the presence or absence of MOF. […] Control seeds of non-transgenic plants were shown the same in the presence or absence of MOF. Germination of Camelina seeds is observed initially as ruptured testa followed by emergence of the […] when the radicle emerges.

AGE:NCED6 seeds = assay: Germination test of imbibed AGE:NCED6 seeds; type: in vivo, Arabidopsis thaliana; conditions: 10 μM fluridone co-applied with Intrepid®2F
Method: Briefly, for the induction of AGE:NCED6 plants at ˜10 rosette stages, diluted (×10,000), Intrepid®2F (Dow AgroSciences) solution which contained 62 μM MOF as an active ingredient was applied directly to the soil in pots containing Arabidopsis seedlings by drenching. Seedling were harvested two days after induction and frozen at −80° C. before RNA extraction. For the induction experiments in imbibed seeds, seeds were placed in 9 cm plastic petri dishes on two layers of filter paper (No. 2, Whatman Inc) moistened with 3.5 mL water or Intrepid®2F (×10,000) and incubated at 4° C. for 3 days and at 22° C. for 29 h (gene expression analysis) or 5 days (germination tests).

[2] = tested on: control seeds of non-transgenic plants; assay: Germination test of wild-type Camelina seeds; type: in vivo, Camelina sativa; conditions: presence or absence of MOF
Method: as §1

[3] = tested on: Arabidopsis NCED6 expression in AGE:NCED6 Camelina seeds; assay: Real time PCR analysis of Arabidopsis NCED6 in Camelina seeds; type: in vivo, Camelina sativa; conditions: imbibed three days in the presence or absence of MOF
[4] = tested on: ABA levels in AGE:NCED6 Camelina seeds; assay: ABA quantification in Camelina seeds by mass spectrometry; type: in vivo, Camelina sativa; conditions: after application of MOF
Method: ABA was quantified by a previously published method (44), but was modified to ABA. Briefly, samples were ground in liquid nitrogen and internal standards ([…] of 2.5 mM) were added. Samples were extracted with 1.5 mL acetonitrile/methanol (1:1 v:v). After lyophilization, samples were resolubilized in […] of 50% MeOH. For LC separation, two monolithic C18 columns (Onyx, 4.6 mm×100 mm, Phenomenex) with a guard cartridge were used flowing at 1 mL min^−1. […] For quantitation, a series of standards were prepared containing different concentrations of ABA mixed with D-labeled ABA (250 μmol/sample). […] The peak areas of endogenous ABA were normalized with the corresponding internal standard and then calculated according to the standard curve.
To examine whether ABA levels in the AGE: NCED6 seeds were affected by gene induction, ABA in wild-type and the AGE: NCED6 seeds was quantified by mass spectrometry, as described previously. […]

[5] = tested on: AGE:CYP707A2 transgenic Camelina seeds; assay: Germination test of Camelina AGE:CYP707A2 seeds; type: in vivo, Camelina sativa; conditions: imbibed three days in the presence of MOF or MOF+ABA (1 mM ABA)
Method: as §1
To determine whether there was an effect of AGE: CYP707A2 transgenic seeds on germination during imbibitions, wild-type and homozygous seeds from transgenic plant lines, 14-3, 3-6, and 2-1, were imbibed for three days in the presence of MOF or in the presence of MOF+ABA.

Compound	recovery of germination of MOF-induced AGE:NCED6 Camelina seeds ([1]; co-application of MOF and fluridone, data not shown)	recovery of germination of ligand-suppressed AGE:NCED6 seeds (AGE:NCED6 seeds)	germination of control seeds of non-transgenic Camelina plants [2]	Arabidopsis NCED6 expression in Camelina seeds by real time PCR [3]	inhibition of germination (endosperm rupture and radicle protrusion), line 13-12 ([1]; AGE:NCED6 Camelina line 13-12, MOF, three days)	inhibition of germination (endosperm rupture and radicle protrusion), line 16-12 ([1]; AGE:NCED6 Camelina line 16-12, MOF, three days)	inhibition of germination (endosperm rupture and radicle protrusion), line 17-17 ([1]; AGE:NCED6 Camelina line 17-17, MOF, three days)	germination of AGE:NCED6 Camelina seeds ([1]; imbibed three days in the presence of MOF (122.6 μM))	ABA in AGE:NCED6 Camelina seeds [4]	germination of AGE:CYP707A2 Camelina seeds, line 2-1 [5]	germination of AGE:CYP707A2 Camelina seeds, line 3-6 [5]	germination of AGE:CYP707A2 Camelina seeds, line 14-3 [5]
fluridone	fully rescued	fully rescued										
COc1cccc(C(=O)NN(C(=O)c2cc(C)cc(C)c2)C(C)(C)C)c1C [MOF, methoxyfenozide]			the same	did not detect	95%	89%	90%	inhibited dramatically	remarkable increase in ABA	95%	98%	99%
